Patent US20050100983A1, “Cell-free methods for identifying compounds that affect toll-like receptor 9 (TLR9) signaling” (Coley Pharmaceutical GmbH, priority 2003, published 2005)
Ends that are not written are not given here. * marks the point of attachment. X1 = 2,3‑bis(palmitoyloxy)‑(2RS)‑propyl, CCCCCCCCCCCCCCCC(=O)OCC(C*)OC(=O)CCCCCCCCCCCCCCC; Palmitoyl = CCCCCCCCCCCCCCCC(=O)*

Columns and labels:
human TLR9ect = molecular target: T1, human TLR9ect (Homo sapiens, UniProt Q9NR96); assay: SPR biosensor analysis of human TLR9ect binding to CpG-DNA 2006; conditions: non-CpG-DNA 2006GC as control
T1 construct: hTLR9ect (aa 1-815); made in house
T1 sequence (Q9NR96 26-815): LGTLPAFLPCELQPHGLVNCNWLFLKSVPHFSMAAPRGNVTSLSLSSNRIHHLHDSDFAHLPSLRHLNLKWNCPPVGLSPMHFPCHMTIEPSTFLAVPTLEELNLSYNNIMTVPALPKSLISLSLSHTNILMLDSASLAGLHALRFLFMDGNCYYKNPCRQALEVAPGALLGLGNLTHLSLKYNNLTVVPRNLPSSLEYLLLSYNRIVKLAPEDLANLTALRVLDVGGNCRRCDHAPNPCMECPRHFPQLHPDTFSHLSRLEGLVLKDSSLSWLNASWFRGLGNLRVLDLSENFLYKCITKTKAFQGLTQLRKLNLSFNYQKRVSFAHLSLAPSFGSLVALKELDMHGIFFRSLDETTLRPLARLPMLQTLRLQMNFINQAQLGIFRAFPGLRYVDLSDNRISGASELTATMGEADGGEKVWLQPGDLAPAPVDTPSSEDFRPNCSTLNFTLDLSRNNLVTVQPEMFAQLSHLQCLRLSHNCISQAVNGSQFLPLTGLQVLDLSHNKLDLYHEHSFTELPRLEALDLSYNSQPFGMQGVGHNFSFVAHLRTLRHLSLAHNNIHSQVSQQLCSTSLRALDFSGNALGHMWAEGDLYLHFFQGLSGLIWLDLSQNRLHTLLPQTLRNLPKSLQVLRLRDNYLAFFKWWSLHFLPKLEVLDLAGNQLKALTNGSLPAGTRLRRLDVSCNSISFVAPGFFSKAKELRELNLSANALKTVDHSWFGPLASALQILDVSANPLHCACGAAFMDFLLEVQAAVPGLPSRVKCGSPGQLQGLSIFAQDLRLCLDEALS
From the text: Protein. Recombinant fusion proteins consisting of the extracellular domain of Toll-like receptors mTLR9ect (aa 1-816), mTLR9ect-mut (see below) (aa 1-816), hTLR9ect (aa 1-815) and mTLR2ect (aa 1-587) fused to human IgG1-Fc were constructed by amplifying the corresponding extracellular domain and ligating the fragment in frame into a pcDNA3.1(−) (Invitrogen, Netherlands) vector containing the coding sequence for human IgG1-Fc. Fusion proteins were stably expressed in HEK 293 cells and purified from cell lysates by protein A affinity chromatography.
SPR biosensor analysis. Real-time binding of TLR9 or TLR2 was measured by surface plasmon resonance biosensor technology using the BiaCore X system (Uppsala, Sweden). For analysis of TLR9 and TLR2 interaction, biotinylated CpG-DNA and non-CpG-DNA, or biotinylated Pam3CysK4 and PHCK4, respectively, were loaded in running buffer (50 mM MES, 150 mM NaCl, 1 mM MgCl2 at pH 6.5) on SA chips precoated with streptavidin (Biacore AB, Uppsala, Sweden). Non-CpG-DNA or PHCK4 (Wiesmuller K H et al. (1989) Vaccine 7:29-33) served as reference for CpG-DNA and Pam3CysK4 interaction (structure or sequence in Table 1). […] Binding was measured at 25° C. for 750 s (delay time 300 s). […] Sensorgrams were recorded and kinetic data were calculated by the BiaCore Evaluation program (Biacore, version 3.0.1). […]

murine TLR9 = assay: NF-κB luciferase assay, HEK 293 cells transfected with murine TLR9; assay type: cell-based; conditions: TLR9-transfected HEK 293 cells, 1 μM CpG-DNA, inhibitor added 15 min prior to stimulation
Description: Activation is expressed as fold induction compared to no stimulation. NF-κB luciferase assay. For monitoring transient NF-κB activation, 3×10^6 HEK 293 cells were electroporated at 200 volt and 950 μF with 20 ng of a NF-κB luciferase reporter plasmid (kindly provided by Patrick Baeuerle, Munich, Germany) and 1 μg mTLR2 (kindly provided by Tularik, Inc., South San Francisco, USA), mTLR9, or mTLR9-mut expression plasmid. Cells were seeded at 10^5 cells per well and after overnight culture stimulated with 1 μM phosphorothioated CpG-DNA 1668 (SEQ ID NO:1), 1 μM non-CpG-DNA 1668GC (SEQ ID NO:3), 1 μg/ml Pam[…][…] or 1 μg/ml PHCK4 for further 8 hours. […] Stimulated cells were lysed using reporter lysis buffer (Promega, Mannheim, Germany) and lysates were assayed for luciferase activity using a Berthold luminometer (Wildbad, Germany) according to the manufacturer's instruction.

TLR9-CpG-DNA interaction = molecular target: T2, TLR9-CpG-DNA interaction (Mus musculus, UniProt Q9EQU3); assay: SPR biosensor analysis of inhibitors on TLR9-CpG-DNA interaction; assay type: binding, murine; conditions: SPR, 200 nM TLR9, immobilized CpG-DNA 1668
T2 construct: mTLR9ect (aa 1-816); made in house
T2 sequence (Q9EQU3 26-816): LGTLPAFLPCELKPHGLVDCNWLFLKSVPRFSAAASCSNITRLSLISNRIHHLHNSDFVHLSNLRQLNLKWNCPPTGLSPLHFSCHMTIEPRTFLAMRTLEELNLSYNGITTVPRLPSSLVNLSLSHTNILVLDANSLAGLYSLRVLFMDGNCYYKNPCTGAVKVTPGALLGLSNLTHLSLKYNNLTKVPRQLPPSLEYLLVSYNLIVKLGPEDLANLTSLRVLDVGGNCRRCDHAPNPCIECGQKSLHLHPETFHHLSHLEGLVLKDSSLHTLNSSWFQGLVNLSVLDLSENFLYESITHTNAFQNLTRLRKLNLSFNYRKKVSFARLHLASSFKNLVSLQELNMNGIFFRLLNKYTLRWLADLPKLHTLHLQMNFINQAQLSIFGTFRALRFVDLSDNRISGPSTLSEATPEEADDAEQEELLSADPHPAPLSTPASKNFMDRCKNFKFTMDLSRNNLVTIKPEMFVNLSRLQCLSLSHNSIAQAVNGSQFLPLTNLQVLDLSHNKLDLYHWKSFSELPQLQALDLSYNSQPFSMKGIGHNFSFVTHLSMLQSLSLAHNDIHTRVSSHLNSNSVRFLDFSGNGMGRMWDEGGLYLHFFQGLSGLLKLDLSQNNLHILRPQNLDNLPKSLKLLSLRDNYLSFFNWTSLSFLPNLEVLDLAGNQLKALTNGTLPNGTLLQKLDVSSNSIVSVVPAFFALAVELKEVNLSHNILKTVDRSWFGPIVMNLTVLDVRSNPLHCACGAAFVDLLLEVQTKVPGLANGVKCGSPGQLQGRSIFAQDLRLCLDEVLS
Description: Biotinylated CpG-DNA 1668 (SEQ ID NO:1) and non-CpG-DNA 1668GC (SEQ ID NO:3) were immobilized on streptavidin sensor chip flow cells 1 and 2, respectively.
FIG. 2B is a graph depicting SPR biosensor analysis of quinoquine (QC) on TLR9-PAMP interaction. Biotinylated CpG-DNA 1668 (SEQ ID NO:1) and non-CpG-DNA 1668GC (SEQ ID NO:3) were immobilized on streptavidin sensor chip flow cells 1 and 2, respectively. 200 nM TLR9 and indicated concentrations of quinoquine were injected and sensorgrams recorded.
SPR biosensor analysis. Real-time binding of TLR9 or TLR2 was measured by surface plasmon resonance biosensor technology using the BiaCore X system (Uppsala, Sweden). For analysis of TLR9 and TLR2 interaction, biotinylated CpG-DNA and non-CpG-DNA, or biotinylated Pam3CysK4 and PHCK4, respectively, were loaded in running buffer (50 mM MES, 150 mM NaCl, 1 mM MgCl2 at pH 6.5) on SA chips precoated with streptavidin (Biacore AB, Uppsala, Sweden). Non-CpG-DNA or PHCK4 (Wiesmuller K H et al. (1989) Vaccine 7:29-33) served as reference for CpG-DNA and Pam3CysK4 interaction (structure or sequence in Table 1). […] TLR proteins were introduced at 200 nM or as indicated in 40 μl running buffer at a flow rate of 10 μl/min. Binding was measured at 25° C. for 750 s (delay time 300 s). […] Sensorgrams were recorded and kinetic data were calculated by the BiaCore Evaluation program (Biacore, version 3.0.1). Regeneration of the chip was performed by injection of 10 μl 50 mM NaOH, 1 M NaCl and extensive re-equilibration.

[1] = molecular target: T3, mTLR2ect (TLR2-Pam3Cys interaction) (Mus musculus, UniProt Q9QUN7); assay: SPR biosensor analysis of TLR2-Pam3Cys binding; parameters: species or system murine; conditions: PHC as reference
T3 construct: mTLR2ect (aa 1-587); made in house
T3 sequence (Q9QUN7 25-587): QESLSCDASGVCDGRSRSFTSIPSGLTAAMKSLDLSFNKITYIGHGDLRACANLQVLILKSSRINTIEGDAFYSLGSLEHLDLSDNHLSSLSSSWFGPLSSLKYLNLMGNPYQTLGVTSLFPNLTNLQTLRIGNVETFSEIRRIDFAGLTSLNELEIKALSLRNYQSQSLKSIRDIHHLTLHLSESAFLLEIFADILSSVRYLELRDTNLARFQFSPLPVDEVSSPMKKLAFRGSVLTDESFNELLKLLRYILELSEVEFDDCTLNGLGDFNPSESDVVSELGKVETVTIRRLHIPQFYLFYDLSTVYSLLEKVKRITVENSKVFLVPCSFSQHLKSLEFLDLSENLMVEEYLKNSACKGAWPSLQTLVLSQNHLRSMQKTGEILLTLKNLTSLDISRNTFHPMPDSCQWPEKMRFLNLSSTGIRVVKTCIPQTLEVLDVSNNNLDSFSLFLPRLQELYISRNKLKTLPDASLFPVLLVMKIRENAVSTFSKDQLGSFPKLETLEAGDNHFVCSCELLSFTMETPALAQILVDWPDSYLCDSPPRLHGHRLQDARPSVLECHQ

**Q.** “5′-TCGTCGTTTTGTCGTTTTGTCGTT-3′ [CpG-DNA 2006]” was tested. Which “interaction with human TLR9ect” value (human TLR9ect) did it give?
**A.** specifically interacted

**Q.** What does the source list for CO/C1=C\C(C)=C\[C@@H](C)[C@@H](O)[C@@H](C)C/C(C)=C/C=C/[C@H](OC)[C@@H]([C@@H](C)[C@@H](O)[C@H](C)[C@@]2(O)C[C@@H](O)[C@H](C)[C@@H](C(C)C)O2)OC1=O [bafilomycin A1]?
**A.** inhibition of TLR9-driven NF-κB activation (murine TLR9): inhibited cell activation; inhibition of binding of TLR9 to CpG-DNA (TLR9-CpG-DNA interaction): did not influence

**Q.** With “S-(2,3-bis(palmitoyloxy)-(2-RS)-propyl)-N-palmitoyl-(R)-Cys-(S)-Ser-(S)-Lys(4) (Palmitoyl-C(X1)SKKKK; also: biotinylated (site not given here)) [Pam3Cys]” as the compound, how does the “Binding of TLR2 to Pam3Cys” value [1] read?
**A.** specific
